Test results from ChEMBL document CHEMBL4041501, “Isolation of Acacetin from Calea urticifolia with Inhibitory Properties against Human Monoamine Oxidase-A and -B” (J Nat Prod, 2016).

Experiments:
[1] = molecular target: T1, Amine oxidase [flavin-containing] A (Homo sapiens, UniProt P21397); test: Inhibition of recombinant human MAO-A assessed as reduction in 4-hydroxyquinoline formation using kynuramine as substrate after 20 mins by fluorometric assay
T1 sequence (P21397 whole entry): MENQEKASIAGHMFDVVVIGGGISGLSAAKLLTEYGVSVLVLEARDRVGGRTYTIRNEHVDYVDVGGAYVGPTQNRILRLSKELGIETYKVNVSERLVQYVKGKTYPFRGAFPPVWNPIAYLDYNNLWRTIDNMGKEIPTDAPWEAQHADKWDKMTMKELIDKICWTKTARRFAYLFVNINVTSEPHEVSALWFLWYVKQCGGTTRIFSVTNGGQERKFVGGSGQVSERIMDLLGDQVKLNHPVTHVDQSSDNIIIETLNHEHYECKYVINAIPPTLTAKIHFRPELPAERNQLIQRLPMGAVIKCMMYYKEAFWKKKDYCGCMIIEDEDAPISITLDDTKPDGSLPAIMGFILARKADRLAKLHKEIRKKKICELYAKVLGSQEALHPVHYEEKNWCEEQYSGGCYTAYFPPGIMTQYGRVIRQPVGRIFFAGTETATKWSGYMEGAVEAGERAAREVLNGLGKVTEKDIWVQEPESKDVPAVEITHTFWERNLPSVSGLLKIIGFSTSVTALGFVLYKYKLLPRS

[2] = molecular target: T1, Amine oxidase [flavin-containing] A; test: Competitive inhibition of recombinant human MAO-A assessed as reduction in 4-hydroxyquinoline formation using varying levels of kynuramine as substrate after 20 mins by Lineweaver-Burk plot analysis
[3] = molecular target: T1, Amine oxidase [flavin-containing] A; test: Time-dependent inhibition of recombinant human MAO-A assessed as reduction in 4-hydroxyquinoline formation at 0.5 uM using kynuramine as substrate preincubated up to 15 mins followed by substrate addition by fluorometric assay
[4] = molecular target: T2, Amine oxidase [flavin-containing] B (Homo sapiens, UniProt P27338); test: Time-dependent inhibition of recombinant human MAO-B assessed as reduction in 4-hydroxyquinoline formation at 0.2 uM using kynuramine as substrate preincubated up to 15 mins followed by substrate addition by fluorometric assay
T2 sequence (P27338 whole entry): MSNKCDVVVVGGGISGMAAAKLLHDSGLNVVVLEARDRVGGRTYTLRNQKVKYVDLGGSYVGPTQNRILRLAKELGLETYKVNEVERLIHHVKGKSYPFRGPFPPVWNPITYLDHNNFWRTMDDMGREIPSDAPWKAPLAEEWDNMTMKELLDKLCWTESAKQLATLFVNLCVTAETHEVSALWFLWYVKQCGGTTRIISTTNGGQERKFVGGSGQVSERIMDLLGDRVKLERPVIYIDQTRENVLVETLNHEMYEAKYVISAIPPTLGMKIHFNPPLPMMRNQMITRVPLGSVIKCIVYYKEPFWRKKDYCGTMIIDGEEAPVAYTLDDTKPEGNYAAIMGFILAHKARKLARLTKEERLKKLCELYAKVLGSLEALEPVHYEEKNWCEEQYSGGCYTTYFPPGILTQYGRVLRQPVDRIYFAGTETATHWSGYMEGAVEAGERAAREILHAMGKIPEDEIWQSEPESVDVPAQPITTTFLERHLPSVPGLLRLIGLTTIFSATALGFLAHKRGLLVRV

[5] = molecular target: T1, Amine oxidase [flavin-containing] A; test: Inhibition of recombinant human MAO-A at 15 uM after 20 mins relative to control
[6] = molecular target: T2, Amine oxidase [flavin-containing] B; test: Inhibition of recombinant human MAO-B at 5 uM after 20 mins relative to control
[7] = molecular target: T1, Amine oxidase [flavin-containing] A; test: Reversible inhibition of recombinant human MAO-A assessed as recovery of enzyme activity at 15 uM preincubated for 20 mins followed by overnight dialysis relative to control; design: scale not given: the % may be the effect or the level left; details: read-out: Activity
[8] = molecular target: T2, Amine oxidase [flavin-containing] B; test: Reversible inhibition of recombinant human MAO-B assessed as recovery of enzyme activity at 5 uM preincubated for 20 mins followed by overnight dialysis; design: scale not given: the % may be the effect or the level left
[9] = molecular target: T1, Amine oxidase [flavin-containing] A; test: Inhibition of recombinant human MAO-A after 30 mins
[10] = molecular target: T2, Amine oxidase [flavin-containing] B; test: Inhibition of recombinant human MAO-B after 30 mins

SMILES	IC50 [1]	Ki [2]	TDI [3]	TDI [4]	inhibition at 15 µM [5]	inhibition (INH) [6]	activity at 15 µM [7]	Activity [8]	IC50 [9]	IC50 [10]
COc1ccc(-c2cc(=O)c3c(O)cc(O)cc3o2)cc1 [ACACETIN]	0.121 µM	0.0592 µM	Not Active	Not Active	> 95%	90%	> 90%	90%	–	–
O=C1C[C@@H](c2ccc(O)cc2)Oc2cc(O)cc(O)c21 [NARINGENIN]	–	–	–	–	–	–	–	–	955 µM	288 µM
